“And” between values parts separate entries of the source, which are not always exact repeats. Equal entries are not always repeated. ± gives the expanded uncertainty stated by the source.
Experiments:
[1] = 101 kPa, Liquid
[2] = refractive index (Na D-line) (dimensionless); conditions: 101.33 kPa, Liquid
[3] = xn = mol fraction of the nth substance listed; conditions: 101 kPa, Liquid
[4] = refractive index (Na D-line) (dimensionless); xn = mol fraction of the nth substance listed; conditions: 101 kPa, Liquid

ClC(Cl)C(Cl)Cl [1,1,2,2-tetrachloroethane]
Conditions | mass density, 298.15 K [kg/m3] | mass density, 303.15 K [kg/m3] | mass density, 308.15 K [kg/m3] | refractive index, 298.15 K | refractive index, 303.15 K | refractive index, 308.15 K | speed of sound, 298.15 K [m/s] | viscosity, 298.15 K [mPa·s] | viscosity, 303.15 K [mPa·s] | viscosity, 308.15 K [mPa·s]
[1] | 1587.8 ± 3.5 | 1580.6 ± 3.6 | 1573.3 ± 3.6 | – | – | – | 1153 ± 7 | 1.591 ± 0.049 | 1.471 ± 0.045 | 1.361 ± 0.042
[2] | – | – | – | 1.4922 ± 0.0024 | 1.4894 ± 0.0024 | 1.4865 ± 0.0024 | – | – | – | –

C1COCCO1 [1,4-dioxane]
Conditions | mass density, 298.15 K [kg/m3] | mass density, 303.15 K [kg/m3] | mass density, 308.15 K [kg/m3] | refractive index, 298.15 K | refractive index, 303.15 K | refractive index, 308.15 K | speed of sound, 298.15 K [m/s] | viscosity, 298.15 K [mPa·s] | viscosity, 303.15 K [mPa·s] | viscosity, 308.15 K [mPa·s]
[1] | 1028.3 ± 2.1 | 1023.1 ± 2.2 | 1017.8 ± 2.2 | – | – | – | 1345 ± 7 | 1.415 ± 0.044 | 1.171 ± 0.1 | 1.068 ± 0.034
[2] | – | – | – | 1.4181 ± 0.0024 | 1.4176 ± 0.0024 | 1.4141 ± 0.0024 | – | – | – | –

OCCCl [1-chloro-2-hydroxyethane]
Conditions | mass density, 298.15 K [kg/m3] | mass density, 303.15 K [kg/m3] | mass density, 308.15 K [kg/m3] | refractive index, 298.15 K | refractive index, 303.15 K | refractive index, 308.15 K | speed of sound, 298.15 K [m/s] | viscosity, 298.15 K [mPa·s] | viscosity, 303.15 K [mPa·s] | viscosity, 308.15 K [mPa·s]
[1] | 1200.9 ± 2.5 | 1192.5 ± 2.6 | 1187.1 ± 2.7 | – | – | – | 1358 ± 8 | 3.104 ± 0.091 | 2.669 ± 0.079 | 2.347 ± 0.07
[2] | – | – | – | 1.4411 ± 0.0024 | 1.438 ± 0.0024 | 1.4326 ± 0.0024 | – | – | – | –

COc1ccccc1 [anisole]
Conditions | mass density, 298.15 K [kg/m3] | mass density, 303.15 K [kg/m3] | mass density, 308.15 K [kg/m3] | refractive index, 298.15 K | refractive index, 303.15 K | refractive index, 308.15 K | speed of sound, 298.15 K [m/s] | viscosity, 298.15 K [mPa·s] | viscosity, 303.15 K | viscosity, 308.15 K [mPa·s]
[1] | 988.9 ± 2 | 984.1 ± 2.1 | 979.4 ± 2.1 | – | – | – | 1410 ± 8 | 0.992 ± 0.032 | 0.919 ± 0.03 mPa·s and 0.918 ± 0.03 mPa·s | 0.853 ± 0.028
[2] | – | – | – | 1.5148 ± 0.0024 | 1.5124 ± 0.0024 | 1.5092 ± 0.0024 | – | – | – | –

CCOC(=O)C(=O)OCC [diethyl ethanedioate]
Conditions | mass density, 298.15 K [kg/m3] | mass density, 303.15 K [kg/m3] | mass density, 308.15 K [kg/m3] | refractive index, 298.15 K | refractive index, 303.15 K | refractive index, 308.15 K | speed of sound, 298.15 K [m/s] | viscosity, 298.15 K [mPa·s] | viscosity, 303.15 K [mPa·s] | viscosity, 308.15 K [mPa·s]
[1] | 1072.3 ± 2.2 | 1066.6 ± 2.3 | 1060.7 ± 2.4 | – | – | – | 1267 ± 7 | 1.844 ± 0.056 | 1.659 ± 0.051 | 1.508 ± 0.046
[2] | – | – | – | 1.4084 ± 0.0024 | 1.4061 ± 0.0024 | 1.4039 ± 0.0024 | – | – | – | –

C[S+](C)[O-] [dimethyl sulfoxide]
Conditions | mass density, 298.15 K [kg/m3] | mass density, 303.15 K [kg/m3] | mass density, 308.15 K [kg/m3] | refractive index, 298.15 K | speed of sound, 298.15 K [m/s] | viscosity, 298.15 K [mPa·s] | viscosity, 303.15 K [mPa·s] | viscosity, 308.15 K [mPa·s]
[1] | 1095.4 ± 2.3 | 1090.8 ± 2.3 | 1086.2 ± 2.4 | – | 1493 ± 8 | 1.984 ± 0.06 | 1.801 ± 0.055 | 1.651 ± 0.05
[2] | – | – | – | 1.4768 ± 0.0064 | – | – | – | –

CN(C)C=O [dimethylformamide]
Conditions | mass density, 298.15 K [kg/m3] | mass density, 303.15 K [kg/m3] | mass density, 308.15 K [kg/m3] | refractive index, 298.15 K | refractive index, 303.15 K | refractive index, 308.15 K | speed of sound, 298.15 K [m/s] | viscosity, 298.15 K [mPa·s] | viscosity, 303.15 K [mPa·s] | viscosity, 308.15 K [mPa·s]
[1] | 943.9 ± 4 | 939.5 ± 4.1 | 935 ± 4.1 | – | – | – | 1462 ± 8 | 0.801 ± 0.026 | 0.754 ± 0.025 | 0.711 ± 0.024
[2] | – | – | – | 1.4288 ± 0.0024 | 1.4264 ± 0.0024 | 1.4238 ± 0.0024 | – | – | – | –

ClC(Cl)=C(Cl)Cl [tetrachloroethene]
Conditions | mass density, 298.15 K [kg/m3] | mass density, 303.15 K [kg/m3] | mass density, 308.15 K [kg/m3] | refractive index, 298.15 K | refractive index, 303.15 K | refractive index, 308.15 K | speed of sound, 298.15 K [m/s] | viscosity, 298.15 K [mPa·s] | viscosity, 303.15 K [mPa·s] | viscosity, 308.15 K [mPa·s]
[1] | 1614.7 ± 3.5 | 1606.9 ± 3.6 | 1599 ± 3.6 | – | – | – | 1038 ± 6 | 0.861 ± 0.028 | 0.817 ± 0.027 | 0.782 ± 0.026
[2] | – | – | – | 1.5036 ± 0.0024 | 1.501 ± 0.0024 | 1.498 ± 0.0024 | – | – | – | –

ClC(Cl)=C(Cl)Cl [tetrachloroethene] + COc1ccccc1
Conditions | mass density, 298.15 K [kg/m3] | mass density, 303.15 K [kg/m3] | mass density, 308.15 K [kg/m3] | refractive index, 298.15 K | refractive index, 303.15 K | refractive index, 308.15 K | speed of sound, 298.15 K [m/s] | viscosity, 298.15 K [mPa·s] | viscosity, 303.15 K [mPa·s] | viscosity, 308.15 K [mPa·s]
[3], x2 = 0 | 1614.7 ± 3.5 | 1606.9 ± 3.6 | 1599 ± 3.6 | – | – | – | 1038 ± 6 | 0.861 ± 0.028 | 0.817 ± 0.027 | 0.782 ± 0.026
[3], x2 = 0.0979 | 1548.6 ± 3.3 | 1540.9 ± 3.4 | 1533.6 ± 3.5 | – | – | – | 1065 ± 6 | 0.859 ± 0.028 | 0.818 ± 0.027 | 0.776 ± 0.026
[3], x2 = 0.1962 | 1483.4 ± 3.2 | 1476.1 ± 3.2 | 1469 ± 3.3 | – | – | – | 1094 ± 6 | 0.854 ± 0.028 | 0.813 ± 0.027 | 0.77 ± 0.025
[3], x2 = 0.3035 | 1413.9 ± 3 | 1407 ± 3.1 | 1400.4 ± 3.2 | – | – | – | 1127 ± 7 | 0.854 ± 0.028 | 0.811 ± 0.027 | 0.767 ± 0.025
[3], x2 = 0.4024 | 1350.9 ± 2.9 | 1343.5 ± 2.9 | 1337.9 ± 3 | – | – | – | 1159 ± 7 | 0.861 ± 0.028 | 0.815 ± 0.027 | 0.77 ± 0.026
[3], x2 = 0.5044 | 1286.9 ± 2.7 | 1280.5 ± 2.8 | 1274.6 ± 2.9 | – | – | – | 1195 ± 7 | 0.874 ± 0.028 | 0.825 ± 0.027 | 0.776 ± 0.026
[3], x2 = 0.6045 | 1225.3 ± 2.6 | 1219.3 ± 2.6 | 1213.5 ± 2.7 | – | – | – | 1232 ± 7 | 0.892 ± 0.029 | 0.839 ± 0.028 | 0.787 ± 0.026
[3], x2 = 0.7033 | 1165.1 ± 2.4 | 1159.6 ± 2.5 | 1154.1 ± 2.6 | – | – | – | 1271 ± 7 | 0.909 ± 0.03 | 0.855 ± 0.028 | 0.799 ± 0.026
[3], x2 = 0.8036 | 1105 ± 2.3 | 1099.6 ± 2.4 | 1094.5 ± 2.4 | – | – | – | 1314 ± 7 | 0.935 ± 0.03 | 0.877 ± 0.029 | 0.817 ± 0.027
[3], x2 = 0.8974 | 1049.2 ± 2.1 | 1044.8 ± 2.2 | 1039.2 ± 2.3 | – | – | – | 1359 ± 8 | 0.961 ± 0.031 | 0.898 ± 0.029 | 0.835 ± 0.028
[4], x2 = 0 | – | – | – | 1.5036 ± 0.0024 | 1.501 ± 0.0024 | 1.498 ± 0.0024 | – | – | – | –
[4], x2 = 0.0979 | – | – | – | 1.5044 ± 0.0024 | 1.5015 ± 0.0024 | 1.4986 ± 0.0024 | – | – | – | –
[4], x2 = 0.1962 | – | – | – | 1.5053 ± 0.0024 | 1.5023 ± 0.0024 | 1.4993 ± 0.0024 | – | – | – | –
[4], x2 = 0.3035 | – | – | – | 1.5065 ± 0.0024 | 1.5034 ± 0.0024 | 1.5004 ± 0.0024 | – | – | – | –
[4], x2 = 0.4024 | – | – | – | 1.5075 ± 0.0024 | 1.5044 ± 0.0024 | 1.5014 ± 0.0024 | – | – | – | –
[4], x2 = 0.5044 | – | – | – | 1.5086 ± 0.0024 | 1.5056 ± 0.0024 | 1.5026 ± 0.0024 | – | – | – | –
[4], x2 = 0.6045 | – | – | – | 1.5099 ± 0.0024 | 1.5069 ± 0.0024 | 1.504 ± 0.0024 | – | – | – | –
[4], x2 = 0.7033 | – | – | – | 1.5111 ± 0.0024 | 1.5083 ± 0.0024 | 1.5054 ± 0.0024 | – | – | – | –
[4], x2 = 0.8036 | – | – | – | 1.5124 ± 0.0024 | 1.5096 ± 0.0024 | 1.5068 ± 0.0024 | – | – | – | –
[4], x2 = 0.8974 | – | – | – | 1.5135 ± 0.0024 | 1.5101 ± 0.0024 | 1.508 ± 0.0024 | – | – | – | –
